Patent US7687237B2, “Method of identification and quantification of proteins, isoforms of the angiotensin I converting enzyme” (Universidade Federal de Sao Paulo - UNIFESP, priority 2002, dated 2010)
One block for each compound: values may come before it.

How the values were obtained:
[1] = system: enzyme of 63 kDa molecular weight which breaks the Phe8-Arg9 BK bond; details: enzyme contained in urine, described by Ryan et al 1978; cited from earlier work
[2] = system: angiotensin I converting enzyme (ACE); assay: ACE enzymatic activity (Hipuril-His-Leu substrate, Friedland and Silverstein method) in essential hypertensive patients after oral captopril; assay type: in vivo, human; details: captopril 50 to 150 mg orally
SHR rats = SHR rats treated with enalapril: blood pressure; assay type: in vivo, rat; details: isogenic hypertensive SHR rats treated with enalapril

Compound: BPP9a
inhibition of the 63 kDa urine enzyme [1]: not inhibited

enzyme activity at the end of the studies ([2]; essential arterial hypertensive patients, end of the study (after 6 hours)): returning to the basal levels
Compound: C[C@H](CS)C(=O)N1CCC[C@H]1C(=O)O [captopril]
inhibition on the enzyme activity ([2]; essential (light and/or mild) arterial hypertensive patients, one-day dose, between 1 and 2 hours after administration, Hipuril-His-Leu substrate): 50%

Compound: CCOC(=O)[C@H](CCc1ccccc1)N[C@@H](C)C(=O)N1CCC[C@H]1C(=O)O [enalapril]
blood pressure of treated SHR rats (SHR rats): pressure under control
